According to patent US6710032B1, “In situ formation of CLA” (University of Maryland, priority 1998, dated 2004):

Assays:
C57/B1/6J mice = test: Example 6: mouse milk fat and milk/fecal fatty acids when fed 18:1 isomer diets; format: in vivo; conditions: for Milk fat on day 10 versus day 6 of lactation: isomer about 25% of dietary fat, fed four days, creamatocrit; for Level of the test isomer in milk, % of the fat: day 10, fed the isomer diet
Source text: C57/B1/6J mice fed a control diet (10 wt % fat) were switched to one of four isomer diets at day 6 of lactation after milk collection. Approximately 25% of the dietary fat (5 caloric %) during the treatment period was replaced with one of four specific isomers of oleic acid, either cis-9; cis-11; trans-9 or trans-11, other diet components were identical. The mice consumed these diets ad libitum for four days and were milked again on day 10 of lactation. Milk and fecal fatty acid composition was analyzed as fatty acid methyl esters by GC. Specific isomers were identified by relative retention times. Milk fat percentage was determined by the creamatocrit method and differences between day 6 and day 10 fat percentages were evaluated by a paired t-test.
A lactating mouse is milked after injection of oxytocin(0.2 ml of a 1 IU/ml solution) immediately prior to milking. Milking is accomplished by creating a suction through tube 26 and inserting the funnel end 28 or tube 26 onto the teat of a lactating mouse in the upside-down position. As milk is collected into the funnel, a small capillary tube (i.e. the same as that used to collect human blood samples) is manually positioned within the funnel to collect milk by capillary action. Failure to promptly collect the milk will expose the milk to evaporation thus increasing fat content of the sample.

cows = test: Ingestion of C18 trans 11 fats in cows, milk fat levels; conditions: in vivo

SMILES	Milk fat on day 10 versus day 6 of lactation (C57/B1/6J mice)	Level of the test isomer in milk, % of the fat (C57/B1/6J mice)	Milk fat levels in cows (cows)	Milk fat on day 10 versus day 6 of lactation (C57/B1/6J mice; listed as C18:1 t-11)
CCCCCCCC/C=C\CCCCCCCC(=O)O [Cis-9, cis-9 18:1 fatty acid]	identical fat values on days 6 and 10			
CCCCCCCC/C=C/CCCCCCCC(=O)O [trans-9, trans-9 18:1 fatty acid]	statistically lower	5.8%		
CCCCCC/C=C/CCCCCCCCCC(=O)O [trans-11, trans-11 18:1 fatty acid]	not statistically different	3%	do not reduce milk fat levels	does not reduce milk fat
CCCCCC/C=C\CCCCCCCCCC(=O)O [cis-11, cis-11 18:1 fatty acid]	not statistically different	10%		
